Experimental data as given in patent publication US20250041460A1, “LANTHANIDE-BASED CONTRAST AGENTS HAVING IMPROVED STABILITY AND METHODS FOR THEIR PRODUCTION AND PURIFICATION” (Inventure, LLC, priority 2023, published 2025).

Assay: Metastables test: challenge with cation exchange resin (Purolite C150), UV 274 nm peak
Format: physicochemical
From the text: FIGS. 3 and 4 show the relative and absolute stability of Applicant's disclosed TSA′ Gd Product as compared to two commercially available and frequently used MRI contrast agents Dotarem® and Clariscan®. The data shown in FIGS. 3 and 4 were obtained as follows. Exposing the product to a cation retaining resin, any free gadolinium ions in the sample are retained on the resin. Since the free gadolinium ions are continually removed, the equilibrium that would normally slow the decomposition of gadolinium DOTA metastable compounds is shifted toward decomposition. […] Gadolinium DOTA complex treated with xylenol orange has a characteristic peak at 274 nm in the ultraviolet spectrum. The amount of metastable gadolinium DOTA complex in the mixture can be inferred by measuring the decrease in this peak height with an ultraviolet spectrometer.
The test procedure used to obtain the foregoing results was as follows: • 1. Expose the resin to water for 24 hours. • 2. Measure the 274 nm peak height of the sample just prior to exposure to resin. This is the initial time point. • 3. Combine one equivalent of resin with one equivalent of the sample and agitate. • 4. […]
A metastable test is used to quantify ideal twisted square antiprismatic (TSA′) locked structures (TSA′ specification is greater than 99.5%). […]
The UV spectra for the time points were acquired over a range of 250-350 nm. The absorbance for the peak at 274 nm was corrected for changes in baseline by linearly interpolating the baseline from before and after the group of peaks around 274 nm (i.e., approximately from 270 to 280 nm) and subtracting the interpolated baseline value at 274 nm from the absorbance of the 274 nm peak maximum.
For the analysis of a time course experiment, it is useful to plot the corrected absorbances of the 274 nm peak as a percentage of the corrected absorbances of the 274 nm peak at the first time point versus time. […]

[1] = after resin purification process of Example 7

CNC[C@H](O)[C@@H](O)[C@H](O)[C@H](O)CO.O=C([O-])CN1CCN(CC(=O)[O-])CCN(CC(=O)O)CCN(CC(=O)[O-])CC1.[Gd+3] [TSA′ Gd Product, gadoterate meglumine]
ideal TSA' cages [1]: 99.98%
non ideal (defective) cages [1]: 200 PPM
stability compared to Dotarem and Clariscan (FIGS. 3-5) (cation retaining resin, 274 nm peak height, up to 120 minutes): more stable
